Experiment [1] has as its target Platelet-derived growth factor receptor beta (Homo sapiens, UniProt P09619). Briefly: Selectivity interaction (KinomeScan (DiscoverX)) EUB0001619a PDGFRB. The following applies: at 1 µM.
For experiment [2], the target named is Tyrosine-protein kinase Fyn (Homo sapiens) (UniProt P06241). As to conditions: at 10 µM.
For experiment [3], the target named is Tyrosine-protein kinase SYK (Homo sapiens, UniProt P43405). Briefly: Selectivity interaction (ActivX KiNativ screen (kinase selectivity in THP-1 cell lysates)) EUB0000639a SYK. The experiment is classed as subcellular. The following applies: lysate, at 5 µM.
The target of experiment [4] is Phosphatidylinositol 4-phosphate 3-kinase C2 domain-containing subunit beta (Homo sapiens) (UniProt O00750). Briefly: Selectivity interaction (KinomeScan (DiscoverX)) EUB0000045b PIK3C2B.
Phosphatidylinositol 4-phosphate 3-kinase C2 domain-containing subunit beta (Homo sapiens), sequence (O00750 whole entry, the tested form may be a part): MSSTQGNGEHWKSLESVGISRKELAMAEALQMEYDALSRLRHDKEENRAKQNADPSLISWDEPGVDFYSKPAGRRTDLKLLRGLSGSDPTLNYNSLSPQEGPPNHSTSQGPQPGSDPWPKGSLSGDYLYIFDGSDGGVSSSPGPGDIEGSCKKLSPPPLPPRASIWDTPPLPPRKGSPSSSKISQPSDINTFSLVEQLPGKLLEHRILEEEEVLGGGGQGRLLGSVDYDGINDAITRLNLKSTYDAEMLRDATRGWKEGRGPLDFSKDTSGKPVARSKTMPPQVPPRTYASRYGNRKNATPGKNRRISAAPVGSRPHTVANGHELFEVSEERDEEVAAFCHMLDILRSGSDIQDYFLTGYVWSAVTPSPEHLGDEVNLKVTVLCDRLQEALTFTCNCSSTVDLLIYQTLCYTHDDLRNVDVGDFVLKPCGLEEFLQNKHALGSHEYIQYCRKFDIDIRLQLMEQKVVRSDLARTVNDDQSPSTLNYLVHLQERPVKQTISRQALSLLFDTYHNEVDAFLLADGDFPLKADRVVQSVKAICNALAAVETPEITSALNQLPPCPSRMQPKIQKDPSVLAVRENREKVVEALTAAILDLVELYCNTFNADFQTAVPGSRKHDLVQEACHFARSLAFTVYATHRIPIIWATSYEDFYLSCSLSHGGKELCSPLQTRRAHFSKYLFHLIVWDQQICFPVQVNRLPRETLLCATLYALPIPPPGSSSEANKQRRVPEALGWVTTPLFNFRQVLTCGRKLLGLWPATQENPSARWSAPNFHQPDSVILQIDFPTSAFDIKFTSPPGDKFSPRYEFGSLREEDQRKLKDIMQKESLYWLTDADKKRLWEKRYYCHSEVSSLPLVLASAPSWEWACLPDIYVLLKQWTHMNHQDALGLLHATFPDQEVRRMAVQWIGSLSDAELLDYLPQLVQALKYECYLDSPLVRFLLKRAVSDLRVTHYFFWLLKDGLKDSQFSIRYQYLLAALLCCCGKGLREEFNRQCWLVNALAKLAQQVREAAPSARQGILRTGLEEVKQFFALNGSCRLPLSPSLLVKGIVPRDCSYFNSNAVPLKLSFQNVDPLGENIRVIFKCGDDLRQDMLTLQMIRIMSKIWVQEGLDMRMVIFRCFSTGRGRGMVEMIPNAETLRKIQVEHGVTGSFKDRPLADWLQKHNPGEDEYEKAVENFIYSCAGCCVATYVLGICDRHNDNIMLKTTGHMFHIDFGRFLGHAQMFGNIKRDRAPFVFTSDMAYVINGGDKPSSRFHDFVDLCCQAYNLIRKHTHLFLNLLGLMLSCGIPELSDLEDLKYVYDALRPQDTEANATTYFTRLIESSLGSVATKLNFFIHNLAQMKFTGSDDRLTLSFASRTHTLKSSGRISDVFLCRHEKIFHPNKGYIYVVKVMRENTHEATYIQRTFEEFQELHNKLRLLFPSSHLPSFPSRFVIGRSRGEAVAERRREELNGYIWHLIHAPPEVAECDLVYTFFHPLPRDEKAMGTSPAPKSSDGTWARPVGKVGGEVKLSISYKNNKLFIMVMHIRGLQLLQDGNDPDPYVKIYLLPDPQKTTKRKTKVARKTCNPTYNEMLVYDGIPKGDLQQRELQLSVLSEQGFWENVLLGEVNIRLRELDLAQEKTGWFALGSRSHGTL
Experiment [5] deals with T1, Atypical kinase COQ8B, mitochondrial (Homo sapiens) (UniProt Q96D53).
T1 sequence (whole entry): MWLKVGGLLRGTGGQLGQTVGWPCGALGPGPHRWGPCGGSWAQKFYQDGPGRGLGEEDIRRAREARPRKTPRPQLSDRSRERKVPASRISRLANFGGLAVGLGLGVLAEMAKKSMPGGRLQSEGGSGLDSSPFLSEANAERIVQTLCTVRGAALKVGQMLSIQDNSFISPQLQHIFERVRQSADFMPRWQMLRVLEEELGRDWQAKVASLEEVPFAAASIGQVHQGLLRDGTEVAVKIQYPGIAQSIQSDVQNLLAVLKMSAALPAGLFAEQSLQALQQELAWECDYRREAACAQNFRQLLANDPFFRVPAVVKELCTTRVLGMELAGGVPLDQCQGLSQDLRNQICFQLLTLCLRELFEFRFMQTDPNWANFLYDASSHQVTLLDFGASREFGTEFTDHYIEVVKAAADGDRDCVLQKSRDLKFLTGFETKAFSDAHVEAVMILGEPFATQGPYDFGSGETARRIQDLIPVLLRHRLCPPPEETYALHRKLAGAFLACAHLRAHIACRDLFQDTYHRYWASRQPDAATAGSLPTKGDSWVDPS
The experiment is described as follows: Selectivity interaction (Ambit KINOMEscan and KiNATiv profiling in Jurkat cells) EUB0000090b ADCK4. The experiment is classed as cell-based. As to conditions: at 1 µM.

Experiment [6] deals with BMP-2-inducible protein kinase (Homo sapiens) (UniProt Q9NSY1). Briefly: Selectivity interaction (Ambit KINOMEscan and KiNATiv profiling in Jurkat cells) EUB0000090b BMP2K. As to conditions: at 1 µM. The class given is cell-based.
The target of experiment [7] is Ephrin type-A receptor 5 (Homo sapiens) (UniProt P54756). The experiment is described as follows: Selectivity interaction (Ambit KINOMEscan and KiNATiv profiling in Jurkat cells) EUB0000090b EPHA5. The experiment is classed as cell-based. The following applies: at 1 µM.
The target of experiment [8] is Ribosomal protein S6 kinase alpha-5 (Homo sapiens) (UniProt O75582). Briefly: Selectivity interaction (KinomeScan (DiscoverX)) EUB0001049a RPS6KA5. The following applies: at 1 µM.
Another experiment has as its target D(2) dopamine receptor (Homo sapiens, UniProt P14416). The experiment is described as follows: Selectivity interaction (Panel of kinases, GPCRs, ion channels and transporters (enzymatic assay)) EUB0000223bCl DRD2.
The target of experiment [9] is Serine/threonine-protein kinase pim-1 (Homo sapiens, UniProt P11309). The experiment is described as follows: Selectivity interaction (Upstate Kinase Profiler service (Millipore)) EUB0000056c PIM1. The following applies: at 1 µM.
Serine/threonine-protein kinase pim-1, sequence (P11309 whole entry, looked up): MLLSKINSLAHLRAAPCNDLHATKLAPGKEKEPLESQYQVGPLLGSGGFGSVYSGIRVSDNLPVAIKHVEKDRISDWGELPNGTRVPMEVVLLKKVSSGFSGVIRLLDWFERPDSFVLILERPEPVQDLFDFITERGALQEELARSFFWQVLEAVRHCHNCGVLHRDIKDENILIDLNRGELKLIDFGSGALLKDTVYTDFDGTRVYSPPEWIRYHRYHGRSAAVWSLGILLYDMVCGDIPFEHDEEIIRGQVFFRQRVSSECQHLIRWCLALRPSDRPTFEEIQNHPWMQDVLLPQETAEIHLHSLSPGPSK
The target in experiment [10] is Bromodomain-containing protein 3 (Homo sapiens) (UniProt Q15059). The experiment is described as follows: Selectivity interaction (Bromodomain panel (DSF asssay)) EUB0000270b BRD3.
Experiment [11] has as its target T2, MAP kinase-activated protein kinase 5 (Homo sapiens) (UniProt Q8IW41).
T2 sequence (whole entry): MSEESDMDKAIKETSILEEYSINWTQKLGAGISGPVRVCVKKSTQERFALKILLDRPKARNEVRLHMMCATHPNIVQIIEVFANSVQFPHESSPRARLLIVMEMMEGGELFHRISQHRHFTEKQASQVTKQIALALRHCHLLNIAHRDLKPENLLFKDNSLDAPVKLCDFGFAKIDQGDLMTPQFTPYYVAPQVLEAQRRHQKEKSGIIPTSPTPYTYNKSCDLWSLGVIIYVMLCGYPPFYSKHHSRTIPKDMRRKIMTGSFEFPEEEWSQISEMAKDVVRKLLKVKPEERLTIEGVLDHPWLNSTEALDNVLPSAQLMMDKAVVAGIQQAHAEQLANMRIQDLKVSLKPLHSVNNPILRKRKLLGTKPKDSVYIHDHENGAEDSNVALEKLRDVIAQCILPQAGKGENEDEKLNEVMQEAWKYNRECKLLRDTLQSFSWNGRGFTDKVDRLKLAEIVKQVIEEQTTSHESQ
The experiment is described as follows: Selectivity interaction (KinomeScan (DiscoverX)) EUB0000092b MAPKAPK5. The following applies: at 10 µM.

For experiment [12], the target named is Histone-lysine N-methyltransferase PRDM9 (Homo sapiens) (UniProt Q9NQV7). Briefly: Selectivity interaction (Methyltransferase screen (radiometric assays, panel of 8 PRMTs, 21 protein lysine methyltransferases, 3 DNA methyltransferases, and one RNA methyltransferase)) EUB0000271b PRDM9.
Histone-lysine N-methyltransferase PRDM9 (Homo sapiens), sequence (Q9NQV7 whole entry): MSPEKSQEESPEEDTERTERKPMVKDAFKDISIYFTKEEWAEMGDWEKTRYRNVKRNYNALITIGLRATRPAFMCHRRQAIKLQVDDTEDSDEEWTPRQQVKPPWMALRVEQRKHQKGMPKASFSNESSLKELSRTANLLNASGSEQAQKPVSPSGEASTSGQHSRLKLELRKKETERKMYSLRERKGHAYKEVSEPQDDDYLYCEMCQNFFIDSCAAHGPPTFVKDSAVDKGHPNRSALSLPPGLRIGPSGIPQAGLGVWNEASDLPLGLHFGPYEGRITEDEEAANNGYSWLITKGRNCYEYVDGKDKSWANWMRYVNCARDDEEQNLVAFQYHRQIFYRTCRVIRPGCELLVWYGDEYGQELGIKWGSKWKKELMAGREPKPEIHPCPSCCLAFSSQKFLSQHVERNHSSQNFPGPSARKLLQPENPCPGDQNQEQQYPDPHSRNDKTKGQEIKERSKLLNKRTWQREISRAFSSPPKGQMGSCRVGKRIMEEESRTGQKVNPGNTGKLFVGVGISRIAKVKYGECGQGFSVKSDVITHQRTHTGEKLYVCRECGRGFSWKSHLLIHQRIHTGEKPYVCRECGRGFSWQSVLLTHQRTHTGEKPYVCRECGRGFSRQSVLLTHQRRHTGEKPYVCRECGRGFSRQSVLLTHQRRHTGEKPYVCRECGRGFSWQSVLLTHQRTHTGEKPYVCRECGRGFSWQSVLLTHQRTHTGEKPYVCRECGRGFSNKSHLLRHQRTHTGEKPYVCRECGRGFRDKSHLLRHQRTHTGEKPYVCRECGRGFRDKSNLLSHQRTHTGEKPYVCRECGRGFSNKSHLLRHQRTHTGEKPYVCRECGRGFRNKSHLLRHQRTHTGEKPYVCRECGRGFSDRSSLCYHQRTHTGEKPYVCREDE
Experiment [13] has as its target T3, Interleukin-1 receptor-associated kinase 4 (Homo sapiens) (UniProt Q9NWZ3).
T3 sequence (whole entry): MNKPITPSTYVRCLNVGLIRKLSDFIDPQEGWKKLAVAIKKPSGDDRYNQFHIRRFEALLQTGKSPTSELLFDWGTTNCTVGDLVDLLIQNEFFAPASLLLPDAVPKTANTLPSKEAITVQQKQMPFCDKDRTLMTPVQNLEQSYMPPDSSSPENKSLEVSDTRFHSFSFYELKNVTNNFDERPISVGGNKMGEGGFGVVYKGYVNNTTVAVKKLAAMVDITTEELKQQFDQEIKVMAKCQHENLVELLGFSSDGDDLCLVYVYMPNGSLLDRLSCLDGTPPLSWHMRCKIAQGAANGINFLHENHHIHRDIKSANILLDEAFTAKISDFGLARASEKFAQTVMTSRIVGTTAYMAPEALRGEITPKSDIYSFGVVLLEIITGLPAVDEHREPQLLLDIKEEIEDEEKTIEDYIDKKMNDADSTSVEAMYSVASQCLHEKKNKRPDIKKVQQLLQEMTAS
Briefly: Selectivity interaction (KinomeScan (DiscoverX)) EUB0000229b IRAK4. As to conditions: at 10 µM.

The target of experiment [14] is Rho-associated protein kinase 2 (Homo sapiens, UniProt O75116). Briefly: Selectivity interaction (KinomeScan (DiscoverX)) EUB0000229b ROCK2. As to conditions: at 10 µM.

D(2) dopamine receptor, sequence (P14416 whole entry): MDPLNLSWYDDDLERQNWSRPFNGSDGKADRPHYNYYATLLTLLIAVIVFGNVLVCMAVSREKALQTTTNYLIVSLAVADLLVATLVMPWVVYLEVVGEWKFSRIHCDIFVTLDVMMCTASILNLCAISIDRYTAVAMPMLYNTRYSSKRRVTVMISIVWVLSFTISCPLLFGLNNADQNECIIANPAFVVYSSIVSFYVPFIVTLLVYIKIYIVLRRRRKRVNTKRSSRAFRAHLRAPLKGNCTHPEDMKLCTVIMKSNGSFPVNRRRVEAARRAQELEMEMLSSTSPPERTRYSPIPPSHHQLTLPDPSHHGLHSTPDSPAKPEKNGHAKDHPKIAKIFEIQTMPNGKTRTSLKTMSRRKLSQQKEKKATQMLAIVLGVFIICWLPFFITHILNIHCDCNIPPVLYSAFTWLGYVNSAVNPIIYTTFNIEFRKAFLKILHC
Platelet-derived growth factor receptor beta, sequence (P09619 whole entry): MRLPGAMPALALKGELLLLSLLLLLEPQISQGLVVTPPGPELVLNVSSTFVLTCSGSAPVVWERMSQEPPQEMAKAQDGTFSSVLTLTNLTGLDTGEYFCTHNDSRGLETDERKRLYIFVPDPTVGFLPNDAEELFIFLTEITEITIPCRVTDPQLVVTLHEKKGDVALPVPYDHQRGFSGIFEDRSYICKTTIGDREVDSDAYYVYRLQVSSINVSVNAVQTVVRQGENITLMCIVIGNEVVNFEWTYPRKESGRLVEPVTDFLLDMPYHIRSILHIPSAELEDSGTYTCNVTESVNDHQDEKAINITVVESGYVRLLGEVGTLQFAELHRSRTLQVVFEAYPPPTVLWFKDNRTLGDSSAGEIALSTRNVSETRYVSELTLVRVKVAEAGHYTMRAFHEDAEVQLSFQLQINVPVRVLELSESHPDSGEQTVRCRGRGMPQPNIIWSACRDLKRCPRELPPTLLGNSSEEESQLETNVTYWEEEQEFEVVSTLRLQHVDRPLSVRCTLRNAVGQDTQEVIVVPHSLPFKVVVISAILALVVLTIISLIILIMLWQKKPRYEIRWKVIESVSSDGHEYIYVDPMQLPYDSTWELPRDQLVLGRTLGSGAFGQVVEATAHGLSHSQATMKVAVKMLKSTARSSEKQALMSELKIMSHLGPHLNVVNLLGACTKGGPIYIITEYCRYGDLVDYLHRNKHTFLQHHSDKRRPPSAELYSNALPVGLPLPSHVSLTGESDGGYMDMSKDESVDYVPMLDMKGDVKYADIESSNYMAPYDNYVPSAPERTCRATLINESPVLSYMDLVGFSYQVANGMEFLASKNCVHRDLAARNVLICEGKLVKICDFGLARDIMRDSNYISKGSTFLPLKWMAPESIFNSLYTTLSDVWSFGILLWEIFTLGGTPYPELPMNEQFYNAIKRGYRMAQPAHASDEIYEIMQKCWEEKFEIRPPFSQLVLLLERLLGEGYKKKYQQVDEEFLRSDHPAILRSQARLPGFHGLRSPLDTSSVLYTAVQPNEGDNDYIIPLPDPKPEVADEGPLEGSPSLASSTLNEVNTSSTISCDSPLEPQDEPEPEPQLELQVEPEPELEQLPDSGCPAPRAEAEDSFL
Tyrosine-protein kinase Fyn (Homo sapiens), sequence (P06241 2-537 limits assumed): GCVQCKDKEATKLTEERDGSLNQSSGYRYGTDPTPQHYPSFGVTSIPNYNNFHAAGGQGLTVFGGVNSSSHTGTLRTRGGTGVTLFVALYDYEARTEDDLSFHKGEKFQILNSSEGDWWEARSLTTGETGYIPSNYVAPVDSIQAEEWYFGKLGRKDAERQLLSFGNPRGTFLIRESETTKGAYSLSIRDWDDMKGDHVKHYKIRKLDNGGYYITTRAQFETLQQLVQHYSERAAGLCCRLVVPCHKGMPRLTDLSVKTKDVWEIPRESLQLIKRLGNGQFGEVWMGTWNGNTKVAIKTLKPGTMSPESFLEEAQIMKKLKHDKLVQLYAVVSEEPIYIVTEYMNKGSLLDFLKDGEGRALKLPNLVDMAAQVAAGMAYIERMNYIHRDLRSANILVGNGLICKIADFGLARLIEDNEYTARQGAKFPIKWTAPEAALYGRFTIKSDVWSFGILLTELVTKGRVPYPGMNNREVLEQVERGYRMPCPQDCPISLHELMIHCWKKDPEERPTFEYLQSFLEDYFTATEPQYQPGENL

For `N#Cc1cccc(-c2c[nH]c3ncnc(N4CCOCC4)c23)c1`, the % of control in experiment [1] was found to be 90%.

Molecule `CCN(CC)CCCCNc1ncc2cc(-c3cc(OC)cc(OC)c3)c(NC(=O)NC(C)(C)C)nc2n1` displayed a % of control in experiment [2] of 100%.

Turning to `CC[C@@H]1[C@H](F)C(=O)N[C@@H]1COc1nccc2cc(C(N)=O)c(OC)cc12` [ZIMLOVISERTIB], in [3], the % of inhibition is -8.7%.

`C=CC(=O)Nc1cc(-n2c(=O)ccc3cnc4ccc(-c5ccc(NS(C)(=O)=O)cc5)cc4c32)ccc1C`: the % of control was determined as 100% in experiment [4] (at 1 µM) and 40% in experiment [4] (at 10 µM).

On to `CN(C)C/C=C/C(=O)Nc1ccc(C(=O)N2CCCC(Nc3ncc(Cl)c(-c4c[nH]c5ccccc45)n3)C2)cc1` (configuration not stated), for which the % of control stood at 69% in experiment [5], 100% in [6] and 89% in [7].

The molecule `COc1cc(Nc2nc(C)cc(-c3cnn4nc(OC)ccc34)n2)cc(C(F)(F)F)c1` gave a % of control in experiment [8] of 100%.

In turn, `COc1cc(C(=O)N2CC[C@@H](O)[C@@H](N)C2)cc2nc(-c3cc4ccccc4n3CC3CC3)n(C)c12` returned a pXC50 on D(2) dopamine receptor of 4.6 M.

`Cc1ccc(-c2ccc3c(ccc4sc5c(c43)NC[C@@H](C)NC5=O)n2)cn1`: in experiment [9], the % of inhibition amounted to 89%.

The molecule `Cc1cc(CN)cc(C)c1-c1ncn(C)c1-c1cncn1C` yielded a dTM in [10] of -1.78 K.

In experiment [11], `CCC(=O)N1CCN(c2ccc(-n3c(=O)ccc4cnc5ccc(-c6cnc7ccccc7c6)cc5c43)cc2C(F)(F)F)CC1` had a % of control of 100%.

In the case of `Cc1cc(C)cc([C@@H]2c3cc(C)ccc3NC(=O)CN2C(=O)c2ccc(Br)s2)c1`, the % of activity came to 102% in [12] (at 1 µM) and 97% in [12] (at 10 µM).

`COc1cc(N(C)c2ccnc3ccc(C(F)(F)F)cc23)cc(OC)c1OC`: the values for the % binding in experiment [13] and in [14] were 85% and 100%, respectively.

For the origin of these results see ChEMBL document CHEMBL5465560, “Selectivity Literature for EUbOPEN Chemogenomic Library” (2024).
